The record followed here is patent US20090270371A1, “QUINOLINE DERIVATIVES USEFUL IN THE TREATMENT OF MGLUR5 RECEPTOR-MEDIATED DISORDERS” (priority 2005, published 2009).

One may read the Ki as a measure of affinity in units of concentration, obtained from inhibition or displacement. Higher therefore signals lower affinity.

SMILES strings stand for the structures.

The target in this assay is T1, rat mGluR5 receptors (Rattus norvegicus, UniProt P31424).
T1 construct: rat cerebro-cortical membrane preparation was used; from tissue; host or cells: rat cerebral cortex membranes
T1 sequence (P31424 21-1203): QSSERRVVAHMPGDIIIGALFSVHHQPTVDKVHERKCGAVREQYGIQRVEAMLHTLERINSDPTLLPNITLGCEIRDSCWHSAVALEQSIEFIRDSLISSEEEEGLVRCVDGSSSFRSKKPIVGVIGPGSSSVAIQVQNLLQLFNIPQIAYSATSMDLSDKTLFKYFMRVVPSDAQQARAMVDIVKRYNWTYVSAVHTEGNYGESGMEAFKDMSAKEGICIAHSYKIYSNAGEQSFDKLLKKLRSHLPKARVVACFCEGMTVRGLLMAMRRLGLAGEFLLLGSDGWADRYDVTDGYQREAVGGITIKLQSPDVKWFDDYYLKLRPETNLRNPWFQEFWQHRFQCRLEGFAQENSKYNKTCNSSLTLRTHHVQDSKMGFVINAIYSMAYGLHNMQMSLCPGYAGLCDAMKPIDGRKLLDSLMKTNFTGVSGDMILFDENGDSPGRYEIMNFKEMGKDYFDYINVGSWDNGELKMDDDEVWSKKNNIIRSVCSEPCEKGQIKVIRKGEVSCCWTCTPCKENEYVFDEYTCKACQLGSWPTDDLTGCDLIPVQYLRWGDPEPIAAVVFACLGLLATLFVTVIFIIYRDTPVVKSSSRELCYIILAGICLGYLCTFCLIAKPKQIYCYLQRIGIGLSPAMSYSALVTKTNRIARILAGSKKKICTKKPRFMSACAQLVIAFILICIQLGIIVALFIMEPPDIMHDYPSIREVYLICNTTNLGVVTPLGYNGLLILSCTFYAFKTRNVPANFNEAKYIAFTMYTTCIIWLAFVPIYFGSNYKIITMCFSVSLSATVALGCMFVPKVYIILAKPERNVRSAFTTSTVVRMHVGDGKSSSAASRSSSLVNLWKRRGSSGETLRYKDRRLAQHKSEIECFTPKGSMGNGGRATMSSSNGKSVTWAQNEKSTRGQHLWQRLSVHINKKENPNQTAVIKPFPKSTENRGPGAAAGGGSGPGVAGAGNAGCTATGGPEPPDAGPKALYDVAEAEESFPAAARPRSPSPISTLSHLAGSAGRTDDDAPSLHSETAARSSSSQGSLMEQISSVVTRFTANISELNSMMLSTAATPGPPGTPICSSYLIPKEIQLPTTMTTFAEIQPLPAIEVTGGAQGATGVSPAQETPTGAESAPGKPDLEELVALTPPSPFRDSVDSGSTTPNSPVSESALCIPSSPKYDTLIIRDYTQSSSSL
As to the kind of experiment: mGluR5 receptor binding test, rat cerebro-cortical membrane preparation, [3H]-M-MPEP. The settings on record: affinity for rat mGluR5 receptors; [3H]-M-MPEP (2 nM) radioligand. In a few lines: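 Radioligand binding used rat cerebro-cortical membranes with 2 nM [3H]-M-MPEP. Nonspecific binding was defined with 10 μM M-MPEP. The method follows a modification of a published procedure.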
On to `O=S(=O)(c1ccc(Cl)cc1)c1cnc2ccc(F)cc2c1N1CCN(Cc2ccccc2)CC1` [Compound 100], for which the Ki was more than 500 nM.
As for `COc1ccc2ncc(S(=O)(=O)c3ccc(OC)c(Cl)c3)c(N3CCOCC3)c2c1` [Compound 277], the figure is more than 500 nM; as for `COc1ccc2ncc(S(=O)(=O)c3ccc(C)cc3)c(NCc3ccc(C)cc3)c2c1` [Compound 121], more than 500 nM; as for `CCc1ccc2ncc(S(=O)(=O)c3ccc(C)cc3)c(N3CCCCC3)c2c1` [Compound 96], more than 500 nM.
Regarding `CC1CCN(c2c(S(=O)(=O)c3cccc(F)c3)cnc3cc(Cl)ccc23)CC1` [Compound 197], the Ki was less than 200 nM.
For `CC1CCN(c2c(S(=O)(=O)c3ccccc3)cnc3ccc(Cl)cc23)CC1` [Compound 108], the Ki was more than 500 nM.
The value for `Cc1ccc(S(=O)(=O)c2cnc3ccc(C)cc3c2N2CCC(C)CC2)cc1` [Compound 46] was less than 200 nM; that for `Cc1ccc2ncc(S(=O)(=O)c3ccccc3)c(N3CCOCC3)c2c1` [Compound 254] was less than 200 nM.
The value for `Cc1cc(C)cc(S(=O)(=O)c2cnc3ccc(F)cc3c2N2CCOCC2)c1` [Compound 289] was more than 500 nM.
The value for `CCN(CC)c1c(S(=O)(=O)c2ccc(Cl)cc2)cnc2ccc(C)cc12` [Compound 9] was less than 200 nM; that for `CC1CCN(c2c(S(=O)(=O)c3ccc(Cl)cc3)cnc3cc(Cl)ccc23)CC1` [Compound 195, 7-Chloro-3-(4-chloro-benzenesulfonyl)-4-(4-methyl-piperidin-1-yl)-quinoline] was less than 200 nM.
The compound `CCOC(=O)N1CCN(c2c(S(=O)(=O)c3ccc(Cl)cc3)cnc3ccccc23)CC1` [Compound 129] gave a Ki of more than 500 nM.
As for `COc1cccc(S(=O)(=O)c2cnc3cc(F)ccc3c2N2CCOCC2)c1` [Compound 306], the figure is 200 to 500 nM.
As for `O=S(=O)(c1cc(Cl)cc(Cl)c1)c1cnc2ccc(Cl)cc2c1N1CCOCC1` [Compound 293], the figure is more than 500 nM; as for `CC1CCN(c2c(S(=O)(=O)c3cccc(C#N)c3)cnc3cc(Cl)ccc23)CC1` [Compound 190], less than 200 nM; as for `CC1CCN(c2c(S(=O)(=O)c3ccc(C#N)cc3)cnc3c(F)cccc23)CC1` [Compound 234], less than 200 nM.
On to `O=S(=O)(c1ccccc1)c1cnc2ccc(F)cc2c1N1CCCCCC1` [Compound 118], for which the Ki is more than 500 nM.
As for `COc1ccc2ncc(S(=O)(=O)c3ccc(Cl)cc3)c(N3CCN(Cc4ccccc4)CC3)c2c1` [Compound 106], the figure is more than 500 nM.
As for `CN1CCN(c2c(S(=O)(=O)c3ccc(Cl)cc3)cnc3ccccc23)CC1` [Compound 61], the figure is more than 500 nM; as for `Cc1ccc(N2CCN(c3c(S(=O)(=O)c4ccccc4)cnc4ccc(F)cc34)CC2)c(C)c1` [Compound 68], more than 500 nM.
For `O=S(=O)(c1ccccc1)c1cnc2cc(F)ccc2c1N1CCOCC1` [Compound 304], the Ki is more than 500 nM.
The value for `COc1ccc2ncc(S(=O)(=O)c3cc(F)cc(F)c3)c(N3CCOCC3)c2c1` [Compound 272] was more than 500 nM; that for `Cc1ccc(S(=O)(=O)c2cnc3ccccc3c2N2CCCCC2)cc1` [Compound 6] was less than 200 nM.
As for `O=S(=O)(c1cc(F)cc(F)c1)c1cnc2c(F)cccc2c1N1CCOCC1` [Compound 336], the figure is 200 to 500 nM; as for `COc1cccc(S(=O)(=O)c2cnc3ccc(Cl)cc3c2N2CCC(C)CC2)c1` [Compound 215], less than 200 nM; as for `N#Cc1cccc(S(=O)(=O)c2cnc3cc(F)ccc3c2N2CCOCC2)c1` [Compound 311], 200 to 500 nM.
`CC1CCN(c2c(S(=O)(=O)c3cc(Cl)cc(Cl)c3)cnc3ccc(Cl)cc23)CC1` [Compound 208] yielded a Ki of less than 200 nM.
As for `Cc1ccc(S(=O)(=O)c2cnc3ccccc3c2N2CCOCC2)cc1C` [Compound 1, 3-(3,4-Dimethyl-benzenesulfonyl)-4-(morpholin-4-yl)-quinoline], the figure is less than 200 nM.
The value for `O=S(=O)(c1cc(Cl)cc(Cl)c1)c1cnc2cc(F)ccc2c1N1CCOCC1` [Compound 308] was 200 to 500 nM; that for `O=S(=O)(c1ccccc1)c1cnc2cc3c(cc2c1N1CCCCC1)OCCO3` [Compound 135] was more than 500 nM; that for `COc1ccc2ncc(S(=O)(=O)c3ccccc3)c(N3CCN(Cc4ccccc4)CC3)c2c1` [Compound 111] was more than 500 nM.
The value for `O=S(=O)(c1ccccc1)c1cnc2ccc(F)cc2c1N1CCOCC1` [Compound 279] was less than 200 nM.
`Cc1cc(C)cc(S(=O)(=O)c2cnc3cc(F)ccc3c2N2CCC(C)CC2)c1` [Compound 184] had a Ki of 200 to 500 nM.
Turning to `Cc1cc(C)cc(S(=O)(=O)c2cnc3ccc(Cl)cc3c2N2CCC(C)CC2)c1` [Compound 224], the Ki was more than 500 nM.
`CC1CCN(c2c(S(=O)(=O)c3cccc(F)c3)cnc3ccc(Cl)cc23)CC1` [Compound 214]: the inhibition constant (Ki) was 200 to 500 nM.
For `Cc1ccc(S(=O)(=O)c2cnc3ccc(Cl)cc3c2N2CCC(C)CC2)cc1F` [Compound 217], the Ki fell in the range of 200 to 500 nM.
Take `CCOc1ccc2ncc(S(=O)(=O)c3ccc(OC)cc3)c(N3CCOCC3)c2c1` [Compound 125]: the Ki was more than 500 nM.
As for `CC1CCN(c2c(S(=O)(=O)c3cc(Cl)cc(Cl)c3)cnc3ccc(F)cc23)CC1` [Compound 138], the figure is 200 to 500 nM; as for `COc1ccc(S(=O)(=O)c2cnc3ccc(Cl)cc3c2N2CCOCC2)cc1Cl` [Compound 301], more than 500 nM.
As for `CC1CCN(c2c(S(=O)(=O)c3ccc(F)c(Cl)c3)cnc3c(F)cccc23)CC1` [Compound 237], the Ki is less than 200 nM.
As for `O=S(=O)(c1cccc(Cl)c1)c1cnc2cc(Cl)ccc2c1N1CCOCC1` [Compound 328], the figure is less than 200 nM; as for `COc1ccc(S(=O)(=O)c2cnc3ccc(Cl)cc3c2N2CCC(C)CC2)cc1Cl` [Compound 221], more than 500 nM.
As for `O=S(=O)(c1cccc(Cl)c1)c1cnc2ccc(Cl)cc2c1N1CCOCC1` [Compound 297], the figure is more than 500 nM; as for `CCOc1ccc2ncc(S(=O)(=O)c3ccccc3)c(N3CCC(C)CC3)c2c1` [Compound 116], more than 500 nM.
`Cc1ccc(S(=O)(=O)c2cnc3ccc(Cl)cc3c2N2CCOCC2)cc1` [Compound 292] returned a Ki of less than 200 nM.
As for `COc1ccc2ncc(S(=O)(=O)c3cc(Cl)cc(Cl)c3)c(N3CCC(C)CC3)c2c1` [Compound 239], the figure is less than 200 nM; as for `CC1CCN(c2c(S(=O)(=O)c3ccc(F)cc3)cnc3ccc(Cl)cc23)CC1` [Compound 212], less than 200 nM; as for `COc1ccc(S(=O)(=O)c2cnc3ccc(F)cc3c2N2CCC(C)CC2)cc1OC` [Compound 143], 200 to 500 nM.
As for `CCc1ccc2ncc(S(=O)(=O)c3ccc(Cl)cc3)c(N(CC)CC)c2c1` [Compound 84], the figure is more than 500 nM; as for `CCc1ccc2ncc(S(=O)(=O)c3ccc(OC)cc3)c(N(CC)CC)c2c1` [Compound 12], more than 500 nM; as for `COc1ccc2ncc(S(=O)(=O)c3ccc(C)c(Cl)c3)c(N3CCOCC3)c2c1` [Compound 276], more than 500 nM.
`COc1ccc(CNc2c(S(=O)(=O)c3ccc(Cl)cc3)cnc3ccccc23)cc1` [Compound 31] came in with a Ki of more than 500 nM.
The compound `COc1ccc(S(=O)(=O)c2cnc3ccc(C)cc3c2N2CCC(C)CC2)cc1Cl` [Compound 162] gave a Ki of less than 200 nM.
In the case of `CCOC(=O)C1CCN(c2c(S(=O)(=O)c3ccc(C)cc3)cnc3ccc(OCC)cc23)CC1` [Compound 98], the Ki is more than 500 nM.
As for `Cc1ccc(S(=O)(=O)c2cnc3ccc(F)cc3c2N2CCOCC2)cc1F` [Compound 287], the figure is more than 500 nM.
As for `O=S(=O)(c1cccc(Cl)c1)c1cnc2ccc(F)cc2c1N1CCOCC1` [Compound 285], the figure is more than 500 nM; as for `Cc1ccc(S(=O)(=O)c2cnc3ccc(C)cc3c2N2CCCCCC2)cc1` [Compound 86], more than 500 nM; as for `COc1ccc(S(=O)(=O)c2cnc3cc(F)ccc3c2N2CCOCC2)cc1Cl` [Compound 307], 200 to 500 nM.
As for `O=S(=O)(c1ccccc1)c1cnc2ccc(F)cc2c1N1CCCCC1` [Compound 107], the figure is more than 500 nM; as for `CC1CCN(c2c(S(=O)(=O)c3ccccc3)cnc3ccc(F)cc23)CC1` [Compound 136], more than 500 nM; as for `CCc1ccc2ncc(S(=O)(=O)c3ccc(C)cc3)c(NCc3ccc(F)cc3)c2c1` [Compound 130], more than 500 nM.
`Cc1ccc2ncc(S(=O)(=O)c3ccc(C)c(Cl)c3)c(N3CCOCC3)c2c1` [Compound 266] showed a Ki of 200 to 500 nM.
As for `Cc1ccc2ncc(S(=O)(=O)c3ccccc3)c(N3CCC(C)CC3)c2c1` [Compound 49], the figure is more than 500 nM.
The value for `COc1ccc2ncc(S(=O)(=O)c3ccc(C)cc3)c(NCc3ccc(F)cc3)c2c1` [Compound 103] was more than 500 nM; that for `COc1cccc(S(=O)(=O)c2cnc3ccc(OC)cc3c2N2CCC(C)CC2)c1` [Compound 244] was more than 500 nM; that for `O=S(=O)(c1ccccc1)c1cnc2cc3c(cc2c1N1CCCCCC1)OCCO3` [Compound 95] was more than 500 nM.
For `CC1CCN(c2c(S(=O)(=O)c3cc(Cl)cc(Cl)c3)cnc3cc(Cl)ccc23)CC1` [Compound 188], the Ki is less than 200 nM.
The value for `CCOc1ccc2ncc(S(=O)(=O)c3ccc(Cl)cc3)c(NCc3ccc(F)cc3)c2c1` [Compound 16] was less than 200 nM; that for `Cc1cc(C)cc(S(=O)(=O)c2cnc3cc(Cl)ccc3c2N2CCOCC2)c1` [Compound 333] was more than 500 nM.
Take `CC1CCN(c2c(S(=O)(=O)c3ccc(C#N)cc3)cnc3cc(F)ccc23)CC1` [Compound 180]: the Ki was less than 200 nM.
Compound `Cc1ccc2ncc(S(=O)(=O)c3cc(F)cc(F)c3)c(N3CCC(C)CC3)c2c1` [Compound 154] gave a Ki of 200 to 500 nM.
As for `O=S(=O)(c1cccc(F)c1)c1cnc2cc(Cl)ccc2c1N1CCOCC1` [Compound 325], the figure is more than 500 nM; as for `COc1ccc(S(=O)(=O)c2cnc3ccc(Cl)cc3c2NCc2ccc(C)cc2)cc1` [Compound 122], more than 500 nM.
